The text below walks through data of PubChem BioAssay (NCI).

Several values for one entry are separate records, joined by “and”; a condition that tells them apart may be missing. Equal entries are not always repeated.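 Protocol summary: plate cells (96-well), add compound at 5 concentrations, incubate 48 h, interpolate endpoints linearly. The concentration for 50% growth inhibition is given as GI50. TGI: total growth inhibition.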

Among the test systems are 786-0 renal; HCT-116 colon; HCT-15 colon; HOP-92 NSCLC; IGROV1 ovarian; MDA-MB-435; NCI-H226 lung; OVCAR-3 ovarian; PC-3 prostate; SN12C renal.
What all share (assay): NCI anticancer screen, dose series, 48 h

Turning to `Nc1c(C(=O)c2cccc(C#CCN3CCOCC3)c2)cnn1-c1ccc(F)cc1`, the GI50 was more than 25 µM in the experiment with 786-0 renal; more than 22.8 µM in the experiment on HCT-116 colon; 11.2 µM in the experiment on HCT-15 colon; more than 13 µM with HOP-92 NSCLC; more than 17.2 µM in the experiment with IGROV1 ovarian; 4.41 µM in the experiment with MDA-MB-435. For the same compound, the GI50 was more than 20.4 µM with NCI-H226 lung, more than 23.1 µM in the experiment with OVCAR-3 ovarian, 15.4 µM in the experiment on PC-3 prostate and more than 25 µM in the experiment on SN12C renal. For the same compound, the TGI with 786-0 renal was more than 25 µM; in the experiment with HCT-116 colon, more than 25 µM; with HCT-15 colon it was more than 25 µM; with HOP-92 NSCLC, more than 25 µM; with IGROV1 ovarian it was more than 25 µM; in the experiment with MDA-MB-435, more than 17.4 µM. For the same compound, the TGI with NCI-H226 lung, with OVCAR-3 ovarian, in the experiment with PC-3 prostate and in the experiment on SN12C renal was more than 25 µM each time.

Turning to `S=C=NCc1ccccc1`, the TGI in the experiment on 786-0 renal was 1.65 µM; in the experiment with HCT-116 colon it was 2.36 µM; with HCT-15 colon, 11.1 µM; in the experiment with HOP-92 NSCLC, 17 µM; in the experiment with IGROV1 ovarian, 8.17 µM; in the experiment with MDA-MB-435, 8.33 µM. Moreover, the TGI in the experiment with NCI-H226 lung is 15 µM; with OVCAR-3 ovarian it was 11.3 µM; in the experiment with PC-3 prostate it was 19.8 µM; in the experiment with SN12C renal it was more than 36.8 µM.

With `Nc1ncnc2c(C3OC(CO)C(O)C3O)[nH]nc12` (centres undefined), the GI50 in the experiment with 786-0 renal was 0.0544 µM; with HCT-15 colon, 0.0383 µM and 0.0444 µM; in the experiment on HOP-92 NSCLC, 0.202 µM; in the experiment on MDA-MB-435 it was 0.356 µM; in the experiment with NCI-H226 lung, 0.529 µM and 0.793 µM; in the experiment on OVCAR-3 ovarian it was 0.168 µM and 0.071 µM. For the same compound, the figures for the GI50 with PC-3 prostate and in the experiment with SN12C renal were 0.0474 µM and 0.161 µM, respectively. In addition, the TGI in the experiment with 786-0 renal is 5.65 µM; in the experiment on HCT-116 colon, 3.16 µM; in the experiment with HCT-15 colon it was 0.156 µM; with IGROV1 ovarian, 8.6 µM; in the experiment with MDA-MB-435 it was 8.42 µM; with NCI-H226 lung, 5.83 µM and 10.7 µM. Also, the TGI in the experiment with OVCAR-3 ovarian is 1.79 µM and 0.377 µM; in the experiment with PC-3 prostate it was 8.97 µM; with SN12C renal, 1.68 µM and 1.09 µM.

On to `Nc1nc(N)c2c(ccc3nccc32)[nH]1`, for which the GI50 in the experiment on 786-0 renal is 7.01 µM; in the experiment on HCT-116 colon it was 0.934 µM; in the experiment on HCT-15 colon it was 2.35 µM; in the experiment with HOP-92 NSCLC, 4.18 µM; in the experiment with IGROV1 ovarian it was 2.34 µM; in the experiment with MDA-MB-435, 0.688 µM. In addition, the GI50 was 15.2 µM in the experiment with NCI-H226 lung, 7.68 µM with OVCAR-3 ovarian, 1.63 µM in the experiment on PC-3 prostate and 6.91 µM in the experiment on SN12C renal. The TGI in the experiment on 786-0 renal is more than 100 µM; in the experiment with HCT-116 colon it was more than 71.2 µM; in the experiment on HCT-15 colon, more than 100 µM; in the experiment on HOP-92 NSCLC, 30.6 µM; with IGROV1 ovarian it was 9.35 µM; with MDA-MB-435, 35.4 µM. Also, the TGI in the experiment on NCI-H226 lung was more than 88.9 µM; in the experiment with OVCAR-3 ovarian it was 36.6 µM; in the experiment with PC-3 prostate, more than 64.2 µM; in the experiment with SN12C renal, more than 68.6 µM.

Take `Cc1cc2c3ccccc3ccc2[n+]2ccccc12`: the GI50 with 786-0 renal is 6.11 µM; in the experiment on HCT-116 colon it was 7.29 µM; in the experiment with HCT-15 colon it was 37.9 µM; in the experiment on HOP-92 NSCLC it was 2.69 µM; in the experiment with IGROV1 ovarian, 10 µM; in the experiment on MDA-MB-435, 8.56 µM. The GI50 in the experiment with NCI-H226 lung was 3.14 µM; in the experiment on OVCAR-3 ovarian, 2.28 µM; with PC-3 prostate, 3.38 µM; in the experiment with SN12C renal it was 1.4 µM. In addition, the TGI in the experiment on 786-0 renal is more than 69.1 µM; in the experiment with HCT-116 colon it was 44.4 µM; in the experiment with HCT-15 colon, more than 100 µM; in the experiment on HOP-92 NSCLC it was 27.4 µM; in the experiment on IGROV1 ovarian, more than 86.2 µM; with MDA-MB-435, 26.6 µM. The TGI in the experiment with NCI-H226 lung worked out at 23.7 µM; in the experiment with OVCAR-3 ovarian, 11.8 µM; with PC-3 prostate, 32.1 µM; with SN12C renal it was 7.29 µM.

For `Nc1c(C(=O)c2cccc(CCC3(O)CCCC3)c2)cnn1-c1ccc(F)cc1`, the GI50 in the experiment on 786-0 renal is more than 20.4 µM; in the experiment with HCT-116 colon, 18.5 µM; in the experiment with HCT-15 colon, 18.7 µM; in the experiment on HOP-92 NSCLC, 2.73 µM; with IGROV1 ovarian, more than 25 µM; with MDA-MB-435, 8.98 µM. Moreover, the GI50 is 8.04 µM in the experiment with NCI-H226 lung, more than 18 µM with OVCAR-3 ovarian, 8.98 µM in the experiment with PC-3 prostate and 16.2 µM in the experiment with SN12C renal. In addition, the TGI with 786-0 renal is more than 25 µM; with HCT-116 colon, more than 25 µM; in the experiment with HCT-15 colon, more than 25 µM; with HOP-92 NSCLC, 20.2 µM; with IGROV1 ovarian, more than 25 µM; in the experiment on MDA-MB-435, more than 25 µM. The TGI in the experiment with NCI-H226 lung, in the experiment with OVCAR-3 ovarian, with PC-3 prostate and in the experiment on SN12C renal was more than 25 µM each time.

`OCCNc1ncnc2c1ncn2C1OC(CO)C(O)C1O` (centres undefined): the TGI with 786-0 renal, in the experiment with HCT-116 colon, in the experiment with HCT-15 colon, in the experiment on HOP-92 NSCLC, in the experiment with IGROV1 ovarian and in the experiment with MDA-MB-435 was more than 100 µM each time. For the same compound, the TGI in the experiment with OVCAR-3 ovarian, in the experiment with PC-3 prostate and in the experiment on SN12C renal was more than 100 µM in each case.

On to `Cc1cccc(NC(=O)CCl)c1`, for which the TGI with 786-0 renal, in the experiment with HCT-116 colon, with HCT-15 colon, with IGROV1 ovarian, in the experiment on MDA-MB-435 and in the experiment on NCI-H226 lung was more than 10 µM throughout. The TGI in the experiment with OVCAR-3 ovarian, in the experiment on PC-3 prostate and with SN12C renal was more than 10 µM throughout.

As to `O=Cc1ccc(Oc2c3ccccc3nc3occc23)cc1`, the GI50 in the experiment on 786-0 renal was 18.7 µM; in the experiment on HCT-116 colon, 15.3 µM; with IGROV1 ovarian, 24.6 µM; in the experiment with MDA-MB-435 it was 6.49 µM; in the experiment on OVCAR-3 ovarian it was 2.59 µM; in the experiment with PC-3 prostate it was 19.5 µM. Besides, in the experiment with SN12C renal, the GI50 was 7.73 µM. In addition, the TGI is 54.5 µM in the experiment with 786-0 renal; 28.7 µM with HCT-116 colon; more than 100 µM with IGROV1 ovarian; 24.7 µM with MDA-MB-435; 11.3 µM with OVCAR-3 ovarian; 58.6 µM in the experiment on PC-3 prostate. The same compound yielded a TGI in the experiment on SN12C renal of 24.2 µM.
